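Test compounds were applied to cells in 96-well plates for 48 hours at 5 doses. GI50 = concentration required for 50% inhibition of growth.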 The source made the active and inactive calls. Rule as the data show it: active = GI50 up to about 1.1 µM and inactive = higher.
What was measured:
Assay in all cases: growth of human tumour cells (NCI), 48 h
[1] = system: UO-31
[2] = system: HT-29
[3] = system: HCT-116
[4] = system: HCC 2998
[5] = system: SK-OV-3
[6] = system: MCF7
[7] = system: NCI-H226
[8] = system: BT-549
[9] = system: COLO 205
[10] = system: NCI-H522
[11] = system: T47D
[12] = system: CCRF-CEM
[13] = system: TK-10
[14] = system: HL-60
[15] = system: NCI/ADR-RES
[16] = system: SF-268
[17] = system: Hs-578T
[18] = system: SF-539
[19] = system: NCI-H23
[20] = system: EKVX

Row | SMILES | GI50 [1] | GI50 [2] | GI50 [3] | GI50 [4] | GI50 [5] | GI50 [6] | GI50 [7] | GI50 [8] | GI50 [9] | GI50 [10] | GI50 [11] | GI50 [12] | GI50 [13] | GI50 [14] | GI50 [15] | GI50 [16] | GI50 [17] | GI50 [18] | GI50 [19] | GI50 [20]
1 | CC(=O)Nc1ccc(S(=O)(=O)N=S(C)C)cc1 | > 100 µM (inactive) | > 100 µM (inactive) | > 100 µM (inactive) | > 100 µM (inactive) | > 100 µM (inactive) | > 100 µM (inactive) | > 100 µM (inactive) | > 100 µM (inactive) | > 100 µM (inactive) | > 100 µM (inactive) | > 100 µM (inactive) | > 100 µM (inactive) | > 100 µM (inactive) | > 100 µM (inactive) | > 100 µM (inactive) | > 100 µM (inactive) | > 100 µM (inactive) | > 100 µM (inactive) | > 100 µM (inactive) | > 100 µM (inactive)
2 | Cc1ccc(N2CN3OC(=O)N(c4ccccc4)[C@@]3(c3ccccc3)C2)cc1 | 57.4 µM (inactive) | 25.1 µM (inactive) | 29.2 µM (inactive) | 24.9 µM (inactive) | 40.6 µM (inactive) | 33.7 µM (inactive) | 27 µM (inactive) | 50.4 µM (inactive) | 36.1 µM (inactive) | 10.1 µM (inactive) | 14.2 µM (inactive) | 34.4 µM (inactive) | 50.5 µM (inactive) | 26.2 µM (inactive) | 29 µM (inactive) | 50.7 µM (inactive) | 87.9 µM (inactive) | 29.4 µM (inactive) | 24.2 µM (inactive) | 45.7 µM (inactive)
3 | O=C(CCCl)NN=C1NCCCN1 | > 100 µM (inactive) | > 100 µM (inactive) | > 100 µM (inactive) | > 100 µM (inactive) | > 100 µM (inactive) | > 100 µM (inactive) | > 100 µM (inactive) | > 100 µM (inactive) | > 100 µM (inactive) | > 100 µM (inactive) | > 100 µM (inactive) | > 100 µM (inactive) | > 100 µM (inactive) | > 100 µM (inactive) | > 100 µM (inactive) | > 100 µM (inactive) | > 100 µM (inactive) | > 100 µM (inactive) | > 100 µM (inactive) | > 100 µM (inactive)
4 | O=C1C(=O)c2c(oc(=O)c3ccccc23)-c2ccccc21 | > 25 µM (inactive) | 17.5 µM (inactive) | 11 µM (inactive) | 13.9 µM (inactive) | > 25 µM (inactive) | 10.9 µM (inactive) | > 25 µM (inactive) | 11.7 µM (inactive) | > 25 µM (inactive) | 21.2 µM (inactive) | > 25 µM (inactive) | > 25 µM (inactive) | > 25 µM (inactive) | 8.11 µM (inactive) | 22.9 µM (inactive) | > 25 µM (inactive) | > 25 µM (inactive) | > 25 µM (inactive) | 18 µM (inactive) | > 25 µM (inactive)
5 | COC(=O)[C@]12CC[C@H]3CN(C(=O)OCc4ccccc4)[C@H]([C@H]31)[C@H](c1ccccc1)N2 | 67.3 µM (inactive) | 74.8 µM (inactive) | 65.3 µM (inactive) | > 100 µM (inactive) | > 100 µM (inactive) | 67.6 µM (inactive) | 86.7 µM (inactive) | 85.5 µM (inactive) | 92.9 µM (inactive) | 52.1 µM (inactive) | 34.3 µM (inactive) | 41.3 µM (inactive) | > 100 µM (inactive) | 39.6 µM (inactive) | 64.6 µM (inactive) | > 100 µM (inactive) | > 100 µM (inactive) | > 100 µM (inactive) | 77.4 µM (inactive) | 53.5 µM (inactive)
6 | CC12Nc3c(Cl)cc(Cl)cc3N1C(=O)c1ccccc12 (stereo not given) | 52.7 µM (inactive) | > 100 µM (inactive) | > 100 µM (inactive) | > 100 µM (inactive) | > 100 µM (inactive) | > 100 µM (inactive) | 68.7 µM (inactive) | 71.6 µM (inactive) | > 100 µM (inactive) | 97.1 µM (inactive) | > 100 µM (inactive) | > 100 µM (inactive) | 42.2 µM (inactive) | 51.6 µM (inactive) | 91.8 µM (inactive) | > 100 µM (inactive) | 48 µM (inactive) | > 100 µM (inactive) | > 100 µM (inactive) | 57 µM (inactive)
7 | CCOC(=O)C(Cl)(NC(=O)c1c(F)c(F)c(F)c(F)c1F)C(F)(F)F (stereo not given) | > 100 µM (inactive) | > 100 µM (inactive) | > 100 µM (inactive) | > 100 µM (inactive) | > 100 µM (inactive) | > 100 µM (inactive) | > 100 µM (inactive) | > 100 µM (inactive) | > 100 µM (inactive) | 19.5 µM (inactive) | > 100 µM (inactive) | > 100 µM (inactive) | > 100 µM (inactive) | 22.1 µM (inactive) | > 100 µM (inactive) | > 100 µM (inactive) | > 100 µM (inactive) | > 100 µM (inactive) | > 100 µM (inactive) | 75.9 µM (inactive)
8 | CSc1c(C#N)c(N)n(-c2ccc(C)cc2)c(=O)c1C#N | 50.4 µM (inactive) | > 100 µM (inactive) | > 100 µM (inactive) | > 100 µM (inactive) | > 100 µM (inactive) | > 100 µM (inactive) | 70 µM (inactive) | > 100 µM (inactive) | > 100 µM (inactive) | 98.9 µM (inactive) | > 100 µM (inactive) | 94.8 µM (inactive) | > 100 µM (inactive) | > 100 µM (inactive) | > 100 µM (inactive) | > 100 µM (inactive) | > 100 µM (inactive) | > 100 µM (inactive) | > 100 µM (inactive) | > 100 µM (inactive)
9 | CC(C)C1=CC2=C(C(=O)C1=O)C13CCCC(C)(C)C1CC2OC3=O (stereo not given) | 19.4 µM (inactive) | 12.5 µM (inactive) | 18.3 µM (inactive) | 21.3 µM (inactive) | 59.3 µM (inactive) | 22.3 µM (inactive) | 18.6 µM (inactive) | 16.8 µM (inactive) | 17.2 µM (inactive) | 11.3 µM (inactive) | 20.4 µM (inactive) | 3.97 µM (inactive) | 14.8 µM (inactive) | 15.1 µM (inactive) | 18.9 µM (inactive) | 22 µM (inactive) | 34.4 µM (inactive) | 20.7 µM (inactive) | 26.8 µM (inactive) | 16.2 µM (inactive)
10 | NC(=O)c1[nH]nc(C2OC(CO)C(O)C2O)c1O (stereo not given) | 4.01 µM (inactive) | 0.851 µM (active) | 0.548 µM (active) | 42.5 µM (inactive) | 84.3 µM (inactive) | 1.79 µM (inactive) | 181 µM (inactive) | 182 µM (inactive) | 16 µM (inactive) | 37.2 µM (inactive) | 5.55 µM (inactive) | 0.507 µM (active) | 91.6 µM (inactive) | 0.724 µM (active) | 2.68 µM (inactive) | 4.57 µM (inactive) | 94 µM (inactive) | 16.9 µM (inactive) | 9.59 µM (inactive) | 52.6 µM (inactive)
